The numbers were not newly measured in patent US6713077B1, “Control of shoot/foliar feeding pests with pesticide seed treatments” (Monsanto Technology, LLC, priority 1999, dated 2004), which cites them from elsewhere.

For series [1] the following is noted: cited from earlier work.
For series [2] the following is noted: cited from earlier work. This is another data set of the same source.

Where two headings read alike, the source gives them in different places.

`C#CCN1CC(=O)N(COC(=O)[C@@H]2C(C=C(C)C)C2(C)C)C1=O` (mixture of isomers) [Imiprothrin]: in series [1] (25° C.), the Vapor pressure was 1.8 E-3 mPa.

`CC(C)[C@@H](Nc1ccc(C(F)(F)F)cc1Cl)C(=O)OC(C#N)c1cccc(Oc2ccccc2)c1` (mixture of isomers) [Tau-fluvalinate, (RS)-alpha-cyano-3-phenoxybenzyl(R)-2-[2-chloro-4-(trifluoromethyl)anilino]-3-methylbutanoate]: in series [1] (temperature not given), the Vapor pressure was 9 E-8 mPa. The Water solubility in series [2] (20° C.) is recorded as 1.03 ppb (20° C.).

On to `CC1(C)C(/C=C(\Cl)C(F)(F)F)C1C(=O)OC(C#N)c1cccc(Oc2ccccc2)c1` (racemic) [Cyhalothrin, [1α, 3α(Z)]-(±)-cyano-(3-phenoxyphenyl)methyl 3-(2-chloro-3,3,3-trifluoro-1-propenyl)-2,2-cimethylcyclopropanecarboxylate], for which the Vapor pressure in series [1] (temperature not given) is 0.001 mPa. Besides, the Water solubility in series [2] (20° C.) is 0.004 ppb (20° C.).

With `CC1(C)C(C=C(Cl)Cl)C1C(=O)OC(C#N)c1cccc(Oc2ccccc2)c1` (racemic) [Cypermethrin, (±) alpha-cyano-(3-phenoxyphenyl)methyl(+)-cis,trans-3-(2,2-dichloroethenyl)-2,2-dimethyl-cyclopropane carboxylate], the Vapor pressure in series [1] (temperature not given) is 2.3 E-4 mPa.

Take `CC(C)[C@H](C(=O)OC(C#N)c1cccc(Oc2ccccc2)c1)c1ccc(OC(F)F)cc1` (mixture of isomers) [Flucythrinate, (±)-cyano (3-phenoxyphenyl)methyl (±)-4-(difluoromethoxy)-alpha-(1-methylethyl) benzeneacetate]: the Vapor pressure in series [1] (25° C.) is 0.0012 mPa. Moreover, the Water solubility in series [2] (21° C.) is reported as 0.5 mg/l (21° C.).

Regarding `CC1(C)C(C=C(Cl)Cl)C1C(=O)OC(C#N)c1cccc(Oc2ccccc2)c1` (racemic) [Zeta-cypermethrin, S-cyano (3-phenoxyphenyl)methyl (±) cis/trans 3-(2,2-dichloroethenyl) 2,2 dimethylcyclopropane carboxylate], the Vapor pressure in series [1] (temperature not given) is listed as 2.5 E-4 mPa.

Turning to `CC1(C)[C@H](C(=O)O[C@H](C#N)c2cccc(Oc3ccccc3)c2)[C@@H]1/C=C\C(=O)OC(C(F)(F)F)C(F)(F)F` [Acrinathrin, (S)-alpha-cyano-3-phenoxybenzyl(Z)-(IR-cis)-2,2-dimethyl-3-[2-(2,2,2-trifluoro-trifluoromethyl-ethoxycarbonyl)vinyl]cyclopropane carboxylate], the Vapor pressure in series [1] (temperature not given) is on record as 4.4 E-5 mPa.

Turning to `C=CCC1=C(C)C(OC(=O)C2C(C=C(C)C)C2(C)C)CC1=O` [Allethrin, (RS)-3-allyl-2-methyl-4-oxcyclopent-2-enyl-(1A,3R; 1R,3S)-2,2-dimethyl-3-(2-methylprop-1-enyl)cyclopropane carboxylate], the Vapor pressure in series [1] (21° C.) is listed as 0.16 mPa. In series [2] (in words), the Water solubility result is “practically insol”.

Take `CC1(C)C(C=C(Cl)Cl)C1C(=O)OC(C#N)c1cccc(Oc2ccccc2)c1` (stereo not drawn) [Alpha cypermethrin, (IR cis) S and (IS cis) R enantiomer isomer pair of alpha-cyano-3-phenoxybenzyl-3-(2,2dichlorovinyl)-2,2-dimethylcyclopropane carboxylate]: the Vapor pressure in series [1] (temperature not given) is 2.3 E-2 mPa.

In the case of `CC1(C)C(C=C(Cl)Cl)C1C(=O)OC(C#N)c1ccc(F)c(Oc2ccccc2)c1` (stereo not drawn) [Beta cyfluthrin], in series [1] (no unit, temperature not given), the Vapor pressure is reported as 1.4 to 8.5 E-5. In addition, in series [2] (25° C.), the Water solubility is 1.2-2.1 μg/l (25° C.).

On to `CC1(C)[C@H](C=C(Cl)Cl)[C@H]1C(=O)O[C@@H](C#N)c1cccc(Oc2ccccc2)c1` [Beta-cypermethrin], for which the Vapor pressure in series [1] (temperature not given) is on record as 1.8 E-4 mPa.

In the case of `C=CCC1=C(C)C(OC(=O)[C@@H]2[C@@H](C=C(C)C)C2(C)C)CC1=O` (stereo partly shown) [Bioallethrin], the Vapor pressure in series [1] (25° C.) is reported as 43.9 mPa. Also, the Water solubility in series [2] (temperature not given) is 4.6 mg/L.

Turning to `CC(C)=C[C@@H]1[C@@H](C(=O)OCc2coc(Cc3ccccc3)c2)C1(C)C` [Bioresmethrin, (1R-trans)-[5-(phenylmethyl)-3-furanyl]methyl 2,2-dimethyl-3-(2-methyl-1-propenyl)cyclopropanecarboxylate], the Vapor pressure was 18.6 mPa in series [1] ((Tech.)) and 0.45 mPa in series [1] ((d-resmethrin)). Further, in series [2] (temperature not given), the Water solubility is under 0.3 mg/L.

As to `CCOc1ccc(C2(C(=O)OC(C#N)c3cccc(Oc4ccccc4)c3)CC2(Cl)Cl)cc1` (stereo not shown) [Cycloprothrin, cyano-(3-phenoxyphenyl)methyl 2,2-dichloro-1-(4-ethoxyphenyl)cyclopropane carboxylate], the Vapor pressure in series [1] (20° C.) is given as 2.13 E-3 mPa. Also, in series [2] (25° C.), the Water solubility is given as 0.091 mg/l (25° C.).

Consider `CC1(C)C(C=C(Cl)Cl)C1C(=O)OC(C#N)c1ccc(F)c(Oc2ccccc2)c1` (stereo not shown) [Cyfluthrin, cyano(4-fluoro-3-phenoxyphenyl)methyl 3-(2,2-dichloroethenyl)-2,2-dimethyl-cyclopropanedarboxylate], for which, in series [2] (25° C.), the Water solubility is 2-4.3 μg/l (25° C.).

Take `CC(C)=CC1C(C(=O)OC(C#N)c2cccc(Oc3ccccc3)c2)C1(C)C` (stereo not shown) [Cyphenothrin]: the Vapor pressure in series [1] (20° C.) is reported as 0.12 mPa. Besides, the Water solubility in series [2] (25° C.) is recorded as <10 μg/l (25° C.).

On to `CC1(C)[C@H](C(=O)O[C@H](C#N)c2cccc(Oc3ccccc3)c2)[C@@H]1C=C(Br)Br` [Deltamethrin, (s)-alpha-cyano-3-phenoxybenzyl (IR,3R)-3-(2,2-dibromovinyl)-2,2-dimethyl cyclopropanecarboxylate], for which, in series [1] (temperature not given), the Vapor pressure was 1.24 E-5 mPa.

On to `C#CC(OC(=O)C1C(C=C(C)C)C1(C)C)/C(C)=C/CC` (stereo not shown) [Empenthrin], for which the Vapor pressure in series [1] (23.6° C.) is 14 mPa.

Turning to `CC(C)[C@H](C(=O)O[C@H](C#N)c1cccc(Oc2ccccc2)c1)c1ccc(Cl)cc1` [Esfenvalerate, (S)-cyano (3-phenoxyphenyl) methyl (S)-4-chloro-alpha-(1-methylethyl)benzeneacetate], in series [1] (temperature not given), the Vapor pressure is given as 2 E-4 mPa. The Water solubility in series [2] (temperature not given) is 0.002 mg/L.

As for `CC1(C)C(C(=O)OC(C#N)c2cccc(Oc3ccccc3)c2)C1(C)C` (stereo not drawn) [Fenpropathrin, alpha-cyano-3-phenoxybenzyl 2,2,3,3,-tetramethyl cyclopropoanecarboxylate], in series [1] (temperature not given), the Vapor pressure is on record as 0.73 mPa. Besides, the Water solubility in series [2] (25° C.) is on record as 14.1 μg/l (25° C.).

For `CC(C)C(C(=O)OC(C#N)c1cccc(Oc2ccccc2)c1)c1ccc(Cl)cc1` (stereo not drawn) [Fenvalerate, (s)-cyano(3-phenoxyphenyl)methyl 4-chloro alpha (1-methylethyl)benzeneacetate], the Vapor pressure in series [1] (20° C.) is listed as 1.92 E-2 mPa. In series [2] (temperature not given), the Water solubility is under 0.01 mg/L.

As for `CC1(C)C(C=C(Cl)Cl)C1C(=O)OCc1cccc(Oc2ccccc2)c1` (stereo not drawn) [Permethrin, (3-phenoxyphenyl)-methyl(+)cis-trans-3-(2,2-dichoroethenyl)-2,2-dimethylcyclopropanecarboxylate], the Vapor pressure in series [1] (temperature not given) is listed as 0.07 mPa.

For `CC(C)=CC1C(C(=O)OCc2cccc(Oc3ccccc3)c2)C1(C)C` (stereo not drawn) [Phenothrin, 3-phenoxybenzyl-d,l-cistrans 2,2-dimethyl-3-(2-methylpropenyl)cyclopropane carboxylate], the Vapor pressure in series [1] (21.4° C.) is 1.9 E-2 mPa. Further, the Water solubility in series [2] (25° C.) is on record as <9.7 μg/l (25° C.).

For `C#CCC1=C(C)C(OC(=O)C2C(C=C(C)C)C2(C)C)CC1=O` (stereo not shown) [Prallethrin], in series [1] (23.1° C.), the Vapor pressure is listed as under 0.013 mPa.

As to `CC(C)=CC1C(C(=O)OCN2C(=O)C3=C(CCCC3)C2=O)C1(C)C` (stereo not drawn) [Tetramethrin, 3,4,5,6-tetra hydro-phthalimidomethyl-(IRS)-cis-trans-chrysanthemate], the Vapor pressure in series [1] (30° C.) is on record as 0.944 mPa.

On to `CC1(C)[C@H](C=C(Cl)Cl)[C@H]1C(=O)O[C@H](C#N)c1cccc(Oc2ccccc2)c1` [Theta cypermethrin], for which, in series [1] (temperature not given), the Vapor pressure is reported as 1.8 E-4 mPa.

As for `CC1(C)[C@H](C(=O)O[C@H](C#N)c2cccc(Oc3ccccc3)c2)[C@@H]1C(Br)C(Br)(Br)Br` (stereo partly shown) [Tralomethrin], the Vapor pressure in series [1] (25° C.) is listed as 4.6 E-6 mPa.

For `CC1(C)[C@H](C=C(Cl)Cl)[C@H]1C(=O)OCc1c(F)c(F)cc(F)c1F` [Transfluthrin], in series [1] (temperature not given), the Vapor pressure is on record as 0.4 mPa.

Turning to `CC(C)C(C(=O)OC(C#N)c1cccc(Oc2ccc(Br)cc2)c1)c1ccc(OC(F)F)cc1` (stereo not shown) [ZXI8901], in series [1] (20° C.), the Vapor pressure was 1.6 E-4 mPa.
